Source: patent US20070264199A1, “Magnetic nanoparticle composition and methods for using the same” (priority 2005, published 2007)
Where two headings read alike, the source gives them in different places.

Columns and labels:
[1] = Drug loading in magnetic nanoparticles; type: physicochemical; conditions: for Total Drug Loading (Mean ± SEM): total drug added 10.0 % w/w, n = 2 or 3
Protocol: For incorporation in nanoparticles, hydrochloride salt of the drug (DOX.HCl) was converted to water-insoluble base (DOX) using established methods (Yolles, et al. (1978) Acta Pharm. Suec. 15:382-388). […] Stirring was continued overnight (˜16 hours) to allow partitioning of the drug into the oleic acid shell surrounding iron-oxide nanoparticles. Drug-loaded nanoparticles were separated from the unentrapped drug using a magnet (12200 Gauss; Edmund Scientific, Tonawanda, N.Y.). Nanoparticles were washed twice by re-suspending in distilled water and separated using a magnetic field. […] For drug extraction, 2 mL of 12.5% volume/volume methanolic solution in chloroform was added to the dried sample. The samples were shaken for 24 hours (Environ shaker, model no. 3527; Lab-Line Instruments, Melrose Park, Ill.). Since DOX has greater solubility in this combination of solvents than in methanol or chloroform alone, it was used for the extraction. Nanoparticles were centrifuged for 10 minutes at 16,000 g using an EPPENDORF® microcentrifuge (5417R; Eppendorf-Netheler-Hinz-GmbH, Hamburg, Germany). […] VARIAN® Inc., Walnut Creek, Calif.) at λex=485 nm and λem=591 nm. A standard plot was prepared under identical conditions to calculate the amount of drug loaded in the nanoparticles. There was no further increase in the amount of drug extracted when nanoparticles were kept for extraction for more than 24 hours. […] The cap was removed and ethanol was allowed to evaporate overnight. Magnetite nanoparticles were separated from the free drug using a magnetic field and particles were washed two times with distilled water.

MCF-7 cells = assay: Confocal laser scanning microscopy of drug uptake and localization; type: cell-based; conditions: 2 hours of incubation
Protocol: MCF-7 cells were seeded in Bioptechs plates (Bioptechs, Butler, Pa.) at 50,000 cells/plate in 1 mL serum-containing medium 24 hours prior to the experiment. A dispersion of drug-loaded or void nanoparticles and drug solution (10 μM) were prepared in cell-culture medium as described herein. […] Cells were washed three times with PBS before imaging them under a confocal microscope (Zeiss Confocal microscope LSM410 equipped with argon-krypton laser; Zeiss, Thornwood, N.Y.) at λex=488 nm and a long-pass filter with a cut-on filter of 515 nm for detecting the emission light.

[2] = Antiproliferative IC50 of paclitaxel, doxorubicin and combination, in solution or in magnetic nanoparticles

SMILES	Doxorubicin Loaded ([1]; added doxorubicin 5.0 % w/w + paclitaxel 5.0 % w/w)	Doxorubicin Loaded ([1]; added doxorubicin 10.0 % w/w, paclitaxel 0.0)	Total Drug Loading (Mean ± SEM) [1]	intracellular localization of drug (MCF-7 cells)	IC50 ([2]; read-out: IC50 Nanoparticle)	IC50 ([2]; read-out: IC50 Soluble)	Paclitaxel Loaded ([1]; added paclitaxel 5.0 % w/w + doxorubicin 5.0 % w/w)	Paclitaxel Loaded ([1]; added paclitaxel 10.0 % w/w, doxorubicin 0.0)
COc1cccc2c1C(=O)c1c(O)c3c(c(O)c1C2=O)C[C@@](O)(C(=O)CO)C[C@@H]3O[C@H]1C[C@H](N)[C@H](O)[C@H](C)O1 [Doxorubicin]	3.7 % w/w	8.2 % w/w	8.2 % w/w	nuclear localization	0.795 ± 0.177 µg/mL	0.103 ± 0.0178 µg/mL		
CC(=O)O[C@H]1C(=O)[C@@]2(C)[C@H]([C@H](OC(=O)c3ccccc3)[C@]3(O)C[C@H](OC(=O)[C@H](O)[C@@H](NC(=O)c4ccccc4)c4ccccc4)C(C)=C1C3(C)C)[C@]1(OC(C)=O)CO[C@@H]1C[C@@H]2O [Paclitaxel]			9.5 % w/w		0.0106 ± 0.0006 µg/mL	0.0098 ± 0.0005 µg/mL	4.8 % w/w	9.5 % w/w
